Results as given in patent US20240027453A1, “METHOD FOR DETECTION AND QUANTITATIVE MONITORING OF INFECTIONS WITH HERPESVIRUSES” (The Trustees of Princeton University, priority 2020, published 2024).

Tests used:
[1] = tested on: HSV-1; experiment: TRUSTED PRM assay of HSV-1 viral protein levels after small molecule treatment; type: cell-based; settings: for DBP (P04296) protein level / TK (P03176) protein level / UL8 (P10192) protein level / UL12 (P04294) protein level / UL30 (P04293) protein level / UL42 (P10226) protein level / US3 (P04413) protein level: E; for DBP (P04296) protein level / TK (P03176) protein level / UL8 (P10192) protein level / UL12 (P04294) protein level / UL30 (P04293) protein level / UL42 (P10226) protein level / US3 (P04413) protein level / ICP0 (P08393) protein level / ICP4 (P08392) protein level / ICP22 (P04485) protein level / UL54 (P10238) protein level / CVC2 (P10209) protein level / UL26 (P10210) protein level / UL48 (P06492) protein level / UL49 (P10233) protein level / gB (P10211) protein level / gI (P06487) protein level: FIG. 8A; for ICP0 (P08393) protein level / ICP4 (P08392) protein level / ICP22 (P04485) protein level / UL54 (P10238) protein level: IE; for CVC2 (P10209) protein level / UL26 (P10210) protein level / UL48 (P06492) protein level / UL49 (P10233) protein level / gB (P10211) protein level / gI (P06487) protein level: L
Description: (§1) In example herpesvirus PRM assay methods shown herein, cell pellets were lysed in 2% SDS, 100 mM NaCl, 0.5 mM EDTA, 50 mM Tris, pH 8.2, and 50 μg of protein was reduced and alkylated with 25 mM TCEP and 50 mM CAM respectively for 20 min at 70° C. Proteins were then precipitated via methanol chloroform precipitation (Wessel & Flugg, Anal Biochem. 138(1):141-143, 1984), resuspended in 50 mM HEPES, pH 8.2 and digested overnight with trypsin (50:1 protein:enzyme w/w ratio). Digested peptides were desalted by SDB-RPS StageTip as previously described (Lum et al., Cell Syst., 7(6):[…], 2018; Greco et al., Methods Mol Biol 1410:39-63, 2016; Federspiel & Cristea, Methods Mol Biol., 1977:115-143, 2019).
(§2) Peptides (1.0 μg on column) were analyzed by LC-MS/MS using a Dionex Ultimate 3000 UHPLC coupled online to an EASYSpray ion source and a Q Exactive HF. Peptides were separated on an EASYSpray C18 column (75 μm×25 cm) heated to 50° C. using a linear gradient of 5% B to 32% B over 60 min at a flow rate of 250 nL/min and were ionized at 1.7 kv. Mobile phase A consisted of 0.1% FA in H2O and mobile phase B consisted of 0.1% FA, 2.9% H2O in ACN.
(§3) The PRM method was controlled by a peptide inclusion list with retention time windows of 6 min for selected precursor ions.
(§4) The PRM assay was developed and analyzed using the open-source software Skyline (Maclean et al., Bioinformatics 26(7):966-968, 2010). Summed area under the curve of 3-4 transitions per peptide was used for quantitation. Targeted peptides were normalized to host protein loading control peptides. Peptide values for each sample were scaled to the average of each peptide across all runs. The average of multiple peptides was used as the inferred value for the protein measurement when more than one peptide was quantified (Federspiel et al., PLoS Biol. 17(9):e3000437. Doi: 10.1371/journal.pbio.3000437). PRM quantitation data were graphed using the Python Seaborn and Matplotlib libraries.
(§5) MRC5 primary human fibroblasts (HFs) (ATCC CCL-171) were used as the model system for HSV-1 and HCMV infections and were cultured in complete growth medium (DMEM supplemented with 10% fetal bovine serum and 1% penicillin-streptomycin antibiotics) at 37° C. and 5% CO2. iSLK.219 cells harboring latent KSHV (a gift from Dr. Britt Glaunsinger, University of California, Berkeley) were grown in complete growth medium supplemented with 500 μg/ml hygromycin (ThermoFisher Scientific, 10687010) at 37° C. and 5% CO2. All cells were used for experiments within a maximum of 10 passages.
(§6) Wild type HSV-1 strain 17+ (a gift from Beate Sodeik, Hannover Medical School, Hannover, Germany) was propagated as previously described (Diner et al., 2015). Briefly, PO stocks were generated by electroporating pBAC-HSV-1 into U-2 OS cells. […] In a similar manner, wild type HCMV strain AD169 was produced from BAC electroporation into HFs and working stocks were propagated by infecting HFs at a low level. In both cases, cell-associated virus was released by sonication, combined with supernatant virus, then concentrated by ultracentrifugation (20,000 rpm, 2 hours, 4° C. with SW28 swinging bucket rotor [Beckman Coulter]) over a 10% ficoll (HSV-1) or 20% sorbitol (HCMV) cushion. Virus stock titers were determined by plaque assay for HSV-1 or tissue culture infectious dose (TCID50) for HCMV and infections were performed at a multiplicity of infection (MOI) of 3.
(§7) 12 hours prior to virus infection or reactivation, cells were treated with either the small molecule drug or DMSO/PBS control at an equivalent volume. […] For infection cycles lasting longer than 24 hours, small molecule drugs were re-added to the cell culture medium every 24 hours. Upon collection, cells were rinsed with PBS, scraped into a microcentrifuge tube, pelleted by centrifugation, and rinsed again with PBS.

[2] = tested on: HSV-1; settings: in MRC5 cells; cited from earlier work
[3] = tested on: HCMV; type: cell-based
Description: as §1, §2, §3, §4, §5, §6, §7

[4] = tested on: iSLK.219 cell line; experiment: Toxicity to the iSLK.219 cell line; type: cell-based; settings: 50 μM
[5] = tested on: HCMV; settings: cited from earlier work
[6] = 1 μM, by and after 12 HPI, vs DMSO

With `Oc1ccc(/C=C/c2cc(O)cc(O)c2)cc1` [Res] the “DBP (P04296) protein level” value ([1]; timepoint 2) was 0.02121, the “TK (P03176) protein level” value ([1]; timepoint 2) was 0.03832 and the “UL8 (P10192) protein level” value ([1]; timepoint 2) was 0.0171. For the same molecule, the “UL12 (P04294) protein level” value ([1]; timepoint 2) was 0.01763, the “UL30 (P04293) protein level” value ([1]; timepoint 2) was 0.03876 and the “UL42 (P10226) protein level” value ([1]; timepoint 2) was 0.003041. For the same molecule, the “US3 (P04413) protein level” value ([1]; timepoint 2) was 0.01605, the “ICP0 (P08393) protein level” value ([1]; timepoint 2) was 0.1622 and the “ICP4 (P08392) protein level” value ([1]; timepoint 2) was 0.1073. The “ICP22 (P04485) protein level” value ([1]; timepoint 2) was 0.015, the “UL54 (P10238) protein level” value ([1]; timepoint 2) was 0.0667 and the “CVC2 (P10209) protein level” value ([1]; timepoint 2) was 0.01003. The “UL26 (P10210) protein level” value ([1]; timepoint 2) was 0.003453, the “UL48 (P06492) protein level” value ([1]; timepoint 2) was 0.007183 and the “UL49 (P10233) protein level” value ([1]; timepoint 2) was 0.009894. For the same molecule, the “gB (P10211) protein level” value ([1]; timepoint 2) was 0.0128, the “gI (P06487) protein level” value ([1]; timepoint 2) was 0.00718 and the “DBP (P04296) protein level” value ([1]; timepoint 6) was 0.9121. For the same molecule, the “TK (P03176) protein level” value ([1]; timepoint 6) was 0.9707, the “UL8 (P10192) protein level” value ([1]; timepoint 6) was 1.056 and the “UL12 (P04294) protein level” value ([1]; timepoint 6) was 0.7418. The “UL30 (P04293) protein level” value ([1]; timepoint 6) was 1.353, the “UL42 (P10226) protein level” value ([1]; timepoint 6) was 0.2866 and the “US3 (P04413) protein level” value ([1]; timepoint 6) was 0.616. For the same molecule, the “ICP0 (P08393) protein level” value ([1]; timepoint 6) was 0.5333, the “ICP4 (P08392) protein level” value ([1]; timepoint 6) was 1.063 and the “ICP22 (P04485) protein level” value ([1]; timepoint 6) was 0.7429. For the same molecule, the “UL54 (P10238) protein level” value ([1]; timepoint 6) was 0.9415, the “CVC2 (P10209) protein level” value ([1]; timepoint 6) was 0.2592 and the “UL26 (P10210) protein level” value ([1]; timepoint 6) was 0.1986. The “UL48 (P06492) protein level” value ([1]; timepoint 6) was 0.1816, the “UL49 (P10233) protein level” value ([1]; timepoint 6) was 0.428 and the “gB (P10211) protein level” value ([1]; timepoint 6) was 0.5098. For the same molecule, the “gI (P06487) protein level” value ([1]; timepoint 6) was 0.5705, the “TK (P03176) protein level” value ([1]; timepoint 12) was 1.24 and the “UL8 (P10192) protein level” value ([1]; timepoint 12) was 0.9123. For the same molecule, the “UL12 (P04294) protein level” value ([1]; timepoint 12) was 0.8878, the “UL30 (P04293) protein level” value ([1]; timepoint 12) was 1.001 and the “UL42 (P10226) protein level” value ([1]; timepoint 12) was 0.7743. The “US3 (P04413) protein level” value ([1]; timepoint 12) was 1.156, the “ICP0 (P08393) protein level” value ([1]; timepoint 12) was 1.108 and the “ICP4 (P08392) protein level” value ([1]; timepoint 12) was 1.101. The “ICP22 (P04485) protein level” value ([1]; timepoint 12) was 1.241, the “UL54 (P10238) protein level” value ([1]; timepoint 12) was 1.026 and the “CVC2 (P10209) protein level” value ([1]; timepoint 12) was 0.7067. The “UL26 (P10210) protein level” value ([1]; timepoint 12) was 0.7549, the “UL48 (P06492) protein level” value ([1]; timepoint 12) was 0.8411 and the “UL49 (P10233) protein level” value ([1]; timepoint 12) was 1.283. For the same molecule, the “gB (P10211) protein level” value ([1]; timepoint 12) was 1.286, the “gI (P06487) protein level” value ([1]; timepoint 12) was 0.956 and the “TK (P03176) protein level” value ([1]; timepoint 18) was 0.9806. For the same molecule, the “UL8 (P10192) protein level” value ([1]; timepoint 18) was 0.8259, the “UL12 (P04294) protein level” value ([1]; timepoint 18) was 0.7425 and the “UL30 (P04293) protein level” value ([1]; timepoint 18) was 0.7926. The “UL42 (P10226) protein level” value ([1]; timepoint 18) was 0.7837, the “US3 (P04413) protein level” value ([1]; timepoint 18) was 0.9457 and the “ICP0 (P08393) protein level” value ([1]; timepoint 18) was 1.159. The “ICP4 (P08392) protein level” value ([1]; timepoint 18) was 1.049, the “ICP22 (P04485) protein level” value ([1]; timepoint 18) was 1.213 and the “UL54 (P10238) protein level” value ([1]; timepoint 18) was 0.8148. For the same molecule, the “CVC2 (P10209) protein level” value ([1]; timepoint 18) was 0.601, the “UL26 (P10210) protein level” value ([1]; timepoint 18) was 0.8898 and the “UL48 (P06492) protein level” value ([1]; timepoint 18) was 0.9275. For the same molecule, the “gB (P10211) protein level” value ([1]; timepoint 18) was 1.306 and the “gI (P06487) protein level” value ([1]; timepoint 18) was 1.003.
For `Nc1nc2c(ncn2COCCO)c(=O)[nH]1` [ACV, acyclovir], the “HSV-1 late gene expression” value [1] was “reduction”, the “effect on IE HSV-1 protein levels” value ([1]; 1 μM) was “little effect” and the “levels of HSV-1 proteins DBP, UL42, UL30, UL8, UL12 and UL48” value ([1]; 1 μM) was “significant reduction”. The “decrease in levels of E HSV-1 proteins” value [1, 6] was ~20%, the “decrease in levels of L HSV-1 proteins” value [1, 6] was ~35% and the “expression of IE and E HSV-1 genes” value ([1]; 6 HPI) was “increase”. For the same molecule, the IC50 [2] was 2000 to 3000 nM.
For `Oc1ccc(/C=C/c2cc(O)cc(O)c2)cc1` [trans-Resveratrol], the “levels of HSV-1 viral transactivators ICP4 and UL48 (VP16)” value ([1]; 10 μM EX-527, 50 μM trans-Resveratrol) was “downregulated”, the “decrease in HSV-1 protein levels” value ([1]; 50 μM) was 30-40% and the “HCMV UL122 (IE2) and UL123 (IE1) levels” value [3] was “decreases”. The “HCMV UL123 levels” value ([3]; 24 HPI, […] CAY10602, 50 μM trans-Resveratrol) was “unchanged”, the “HCMV UL26 levels” value ([3]; 48 HPI, […] CAY10602, 50 μM trans-Resveratrol) was “decreased” and the “HCMV viral protein production” value ([3]; by 48 HPI) was “global reduction”. The “HCMV UL99 levels” value ([3]; by 72 HPI, […] CAY10602, 50 μM trans-Resveratrol) was “robustly decreased”, the “global decrease in HCMV viral protein levels” value ([3]; by 120 HPI, […] CAY10602, 50 μM trans-Resveratrol) was ~70% and the “toxicity to the iSLK.219 cell line” value [4] was “toxic”. For the same molecule, the “decrease in HCMV titers” value ([5]; […] CAY10602, 50 μM trans-Resveratrol) was ~50% and the HCMV titers [5] was “decreased”.
